This note sets out measurements from the SangsterLogP compilation.

The first data set is described as follows: method code SF-AS, from Fulcrand, P.; Berge, G.; Noel, A. (1978). Hydrazides as monoamine oxidase inhibitors. Hansch and Free Wilson correlations. Eur J Med Chem, 13(2)177-182.
Molecule `CC(C)NNC(=O)C(C)Oc1ccccc1` (centres undefined) came in with a logP of 1.39. With `CC(C)NNC(=O)C(C)Oc1ccccc1Cl` (centres undefined), the logP turned out to be 2. With `CC(C)NNC(=O)C(C)Oc1ccc(Cl)cc1` (centres undefined), the logP stood at 2.14. The same measure, in the same setting: the result for `Cc1ccc(OCC(=O)NNC(C)c2ccccc2)cc1` (centres undefined) reads 2.87. The same measure, in the same setting: then `COc1ccccc1OCC(=O)NNC(C)C`, with 1.11; and `CC(C)NNC(=O)C(C)(C)Oc1ccccc1`, with 1.88. For `CC(C)NNC(=O)COc1ccccc1Cl`, the logP turned out to be 1.82.

Turning to `CC(NNC(=O)COc1ccccc1)c1ccccc1` (centres undefined), the logP was found to be 2.46. Still for that read-out and setting: then `CCNNC(=O)COc1ccccc1`, with 1. Same read-out and setting: the result for `COc1cccc(OCC(=O)NNC(C)C)c1` reads 1.33; that for `CC(C)NNC(=O)C(C)(C)Oc1ccc(Cl)cc1`, 2.56. Regarding `O=C(COc1ccc(Cl)cc1)NNCc1ccccc1`, the logP was determined as 2.92. In turn, `Cc1ccccc1OCC(=O)NNC(C)C` displayed a logP of 1.83. Same read-out and setting: the result for `CC(C)NNC(=O)COc1ccccc1` reads 1.24.

Turning to `COc1ccc(OCC(=O)NNC(C)c2ccccc2)cc1` (centres undefined), the logP was determined as 2.39. On the same count and under the same terms, the result for `Cc1ccc(OCC(=O)NNC(C)C)cc1` reads 1.81. For the molecule `Cc1cccc(OCC(=O)NNC(C)C)c1`, the logP came out at 1.77. As to `Cc1cccc(OC(C)C(=O)NNC(C)C)c1` (centres undefined), the logP stood at 1.88. Same read-out and setting: the result for `O=C(COc1ccccc1)NNCc1ccccc1` reads 2.16; that for `CCNNC(=O)COc1ccc(Cl)cc1`, 1.73; that for `COc1ccc(OCC(=O)NNC(C)C)cc1`, 1.21. Take `CC(C)NNC(=O)C(C)Oc1cccc(Cl)c1` (centres undefined): the lipophilicity (logP) is 2.18. The same measure, in the same setting: then `CC(C)NNC(=O)COc1cccc(Cl)c1`, with 1.91.

A further data set can be described thus: method code SF, from Fulcrand, P.; Berge, G.; Noel, A. (1978). Hydrazides as monoamine oxidase inhibitors. Hansch and Free Wilson correlations. Eur J Med Chem, 13(2)177-182.
Molecule `CC(C)NNC(=O)COc1ccc(Cl)cc1` returned a logP of 2.01.

The logP is a log measure of how a compound divides between an organic and an aqueous phase. The low end stands for lower lipophilicity, the high end for higher lipophilicity.
